# Data as given in patent US20100183645A1, “ACTIVE OR PASSIVE IMMUNIZATION AGAINST PROAPOPTOTIC NEUROTROPHINS FOR THE TREATMENT AND/OR PREVENTION OF NEURODEGENERATIVE DISEASES” (INSTITUT PASTEUR, priority 2003, published 2010).
# B1: peroxynitrite-treated NGF: NGF oxidised by peroxynitrite, forming high molecular weight NGF aggregates (protein)
# chain: SSTHPVFHMGEFSVCDSVSVWVGDKTTATDIKGKEVTVLAEVNINNSVFRQYFFETKCRASNPVESGCRGIDSKHWNSYCTTTHTFVKALTTDEKQAAWRFIRIDTACVCVLSRKATRRG
# B2: NGF: mouse NGF (2.5S) from Harlan; nerve growth factor, also the immunogen in aluminum phosphate adjuvant (protein)
# chain: SSTHPVFHMGEFSVCDSVSVWVGDKTTATDIKGKEVTVLAEVNINNSVFRQYFFETKCRASNPVESGCRGIDSKHWNSYCTTTHTFVKALTTDEKQAAWRFIRIDTACVCVLSRKATRRG
# B3: BDNF treated with peroxynitrite: brain-derived neurotrophic factor treated with peroxynitrite by the identical protocol (protein, UniProt P23560 129-247, looked up)
# Neurotrophic factor BDNF: HSDPARRGELSVCDSISEWVTAADKKTAVDMSGGTVTVLEKVPVSKGQLKQYFYETKCNPMGYTKEGCRGIDKRHWNSQCRTTQSYVRALTMDSKKRIGWRFIRIDTSCVCTLTIKRGR
# modifications: Neurotrophic factor BDNF peroxynitrite-treated
# notes: brain-derived neurotrophic factor treated with peroxynitrite by the identical protocol
# Assays:
# [1] = tested on: motor neurons plated on astrocyte monolayers; experiment: Motor neuron survival in astrocyte-motor neuron co-cultures; assay type: cell-based, rat; conditions: for Motor neuron survival, percentage of control: co-cultures treated with NGF, mean±SD
# Description: Cell cultures and treatments. […] Astrocytes were plated at a density of 2×10^4 cells/cm^2 and maintained in DMEM supplemented with 10% fetal bovine serum, HEPES (3.6 g/l), penicillin ([…]) and streptomycin (100 μg/ml).
# For co-culture experiments, motor neurons were plated on astrocyte monolayers at a density of 300 cells/cm^2 and maintained in L15 medium supplemented with 0.63 mg/ml bicarbonate, 5 μg/ml insulin, 0.1 mg/ml conalbumin, 0.1 mM putrescine, 30 nM sodium selenite, 20 nM progesterone, 20 mM glucose, 100 IU/ml penicillin, 100 μg/ml streptomycin, and 2% horse serum. Drugs and blocking antibodies were added 3 h after plating at the indicated concentrations.
# Treatments with peroxynitrite and LPS. Peroxynitrite was generously provided by Dr. Rafael Radi (UDELAR, Uruguay) and its concentration determined spectrophotometrically at 302 nm (e=1700 M^−1 cm^−1). Confluent astrocyte monolayers were washed with Dulbecco's phosphate-buffered saline (PBS), supplemented with 0.8 mM MgCl2, 1 mM CaCl2, and 5 mM glucose, and then incubated in 1 ml of 50 mM Na2HPO4, 90 mM NaCl, 5 mM KCl, 0.8 mM MgCl2, 1 mM CaCl2, and 5 mM glucose, pH 7.4. Finally, three additions of 5 μL bolus of peroxynitrite were made to reach the final concentration of 0.5 mM. Five minutes after peroxynitrite exposure, the buffer was removed and replaced with L15 medium, supplemented as described above. In co-culture experiments, motor neurons were plated 1 h after peroxynitrite exposure. […] LPS (from E. coli 026-B6 Cat. No L2654 Sigma) was directly applied to astrocyte monolayers 24 h before and immediately after plating of motor neurons in coculture experiments.
# [2] = tested on: pure motor neuron cultures; experiment: Motor neuron survival in pure motor neuron cultures maintained with GDNF; assay type: cell-based, rat; conditions: for Motor neuron survival with peroxynitrite-treated neurotrophin: without exogenous nitric oxide, GDNF 1 ng/ml, 48 h
# Description: Purified motor neuron cultures were plated at a density of 300 cells/cm^2 in dishes precoated with polyornithinelaminin and maintained in Neurobasal medium supplemented with 2% horse serum, […] L-glutamate, 25 μM β-mercaptoethanol, 0.5 mM L-glutamine, and 2% B-27 supplement (Gibco-Invitrogen). Blocking antibodies were added 3 h after plating at the indicated dilutions. The generation of a low steady state concentration (<50 nM) of nitric oxide was generated by the spontaneous deassociation of 10 μM DETA-NONate (Cayman).
# To assess the pro-apoptotic activity of conditioned media, astrocyte monolayers were incubated for 24 h in Neurobasal medium supplemented as described above, and that medium immediately used to replace the medium of pure motor neuron cultures established 24 h before. Blocking antibodies and DETA-NONOate were added to the conditioned media and motor neuron survival determined after 48 h.
# To assess the pro-apoptotic activity in spinal cord extracts, lumbar cords were dissected from 90 day-old G93A mice or non-transgenic littermates over ice under sterile conditions. To 100 mg of tissue were added 0.4 ml of PBS containing 3 mM EGTA, 1 mM EDTA, 0.5 μg/ml aprotinin, 0.5 μg/ml pepstatin and 0.1 mM PMSF at 0° C., and the tissue was then homogenized under sterile conditions. Homogenates were centrifuged at 40,000 g for 1 hr and the clear supernatants collected and kept at −80° C. until used. Aliquots were added to motor neuron cultures to reach a final protein concentration of 0.5 μg/ml. In all cases, blocking antibodies and drugs were added 3 h after motor neuron plating. The generation of a steady state concentration (<50 nM) of nitric oxide was obtained by the spontaneous disassociation of 10 μM NOC-18 (Dojindo, Gaithersburg).
# Cell counts. Motor neuron survival was assessed by directly counting all cells displaying intact neurites longer than 4 cells in diameter following immunostaining against p 75NTR Counts were performed over an area of 2.76 cm^2 in the center of 35 mm dishes or in an area measuring 0.90 cm^2 along a diagonal in 24-well plates (Cassina et al., 2002). The mean density of motor neurons in control cocultures was 90±4 cells/cm^2.
# Protocol for preparation of muscle extracts and western blotting. Quadriceps muscles were dissected from symptomatic G93A SOD1 or non transgenic littermate mice over ice under sterile conditions. To 1 g of tissues was added 4 ml of PBS containing 3 mM EGTA, 1 mM EDTA, 0.5 mg/ml aprotinin, 0.5 mg/ml pepstatin and 0.1 mM PMSF at 0° C., and the tissue was homogenized under sterile conditions. Homogenates were centrifuged at 40,000 g for 1 hr and the clear supernatants collected and kept at −80° C. until used. Quadriceps were homogenized in lysis buffer containing 2 mM EDTA, 1% SDS, 1 mM PMSF, 10 μg/ml aprotinin, 1 μg/ml leupeptin and 0.5 mM sodium vanadate. Protein quantification was performed using the BCA Protein Assay Reagent kit (Pierce Biotechnology). The samples were prepared in Laemmli buffer supplemented with […] and proteins were transferred to nitrocellulose membrane (Amersham). Membranes were blocked for 2 h in blocking buffer (5% BSA, 0.1% Tween 20 in Tris-buffered saline (TBS), pH 7.4) followed by an over-night incubation with the primary antibody diluted in blocking buffer. […]
# [3] = tested on: cultured spinal cord astrocytes; experiment: ELISA determination of NGF secreted by cultured spinal cord astrocytes; assay type: cell-based, rat; conditions: peroxynitrite 0.5 mM
# Description: Cell cultures and treatments. Primary astrocyte cultures were prepared from the spinal cords of rats aged 1-2 days according to the procedures of Saneto and De Vellis (1987), with minor modifications (Cassina et al., 2002). Astrocytes were plated at a density of 2×10^4 cells/cm^2 and maintained in DMEM supplemented with 10% fetal bovine serum, HEPES (3.6 g/l), penicillin ([…]) and streptomycin (100 μg/ml). The astrocyte monolayers were >98% pure as determined by GFAP immunoreactivity and were devoid of OX42-positive microglial cells.
# Treatments with peroxynitrite and LPS. Peroxynitrite was generously provided by Dr. Rafael Radi (UDELAR, Uruguay) and its concentration determined spectrophotometrically at 302 nm (e=1700 M^−1 cm^−1). Confluent astrocyte monolayers were washed with Dulbecco's phosphate-buffered saline (PBS), supplemented with 0.8 mM MgCl2, 1 mM CaCl2, and 5 mM glucose, and then incubated in 1 ml of 50 mM Na2HPO4, 90 mM NaCl, 5 mM KCl, 0.8 mM MgCl2, 1 mM CaCl2, and 5 mM glucose, pH 7.4. Finally, three additions of 5 μL bolus of peroxynitrite were made to reach the final concentration of 0.5 mM. […]
# Determination of NGF/proNGF. The NGF protein concentration in the culture medium from astrocytes or spinal cord extracts was quantified using the NGF Emax ImmunoAssay System kit (Promega) following the manufacturer's instructions.
# [4] = tested on: G93A SOD-1 transgenic mice; experiment: ALS-like disease progression and survival after systemic immunization against NGF; assay type: in vivo
# Source text: Systemic immunization against NGF on ALS-like disease progression and survival in transgenic mouse overexpressing mutant G93A-SOD1 gene. Animals. The transgenic mouse line overexpressing mutant G93A-SOD1 gene [TgN(SOD1-G93A)1Gur, a high expression mouse line] and the mating pairs were purchased from Jackson laboratory (Bar Harbor, Me., USA). Mice were housed and bred as described previously (Gurney et al. 1994) in accordance with the Institutional Animal Care guidelines.
# Immunization protocol. Adult, female, 40-50 day-old mice, initially weighing 18-24 g, were used for these experiments. Mice were group-housed 5 mice per cage and allowed free access to food and water. For testing, a total of 10 mice per group were autoimmunized against NGF. Each received […] of 25 μg of 2.5S mouse NGF (Harlam, USA) in 0.1 ml of a suspension of aluminum phosphate used as adjuvant. A second injection of 2.5S NGF (50 μg) in the same adjuvant was given 3 weeks later. Non-transgenic and vehicle-injected mice served as control animals for survival tests.
# Analysis of ALS-like disease progression and survival in transgenic mouse. Mice were examined daily for paralysis, disease progression and survival analysis. The initial symptoms of hind leg paralysis or failure to remain suspended in an inverted grid were considered as the disease progression threshold. Mice were killed at terminal stage, i.e. severely paralysis and inability to seek food and water.
molecule,measurement,setting,value
"FC(F)(F)c1ccccc1-n1ccnc1 [TRIM, 1-(2-Trifluoromethylphenyl)imidazole]",Prevention of motor neuron apoptosis induced by NGF,"[1]; co-culture, 10 μM, 72 h",significantly prevented
"[N]=O [Nitric oxide, reference compound]","Motor neuron survival, nitric oxide alone","[2]; <50 nM from 10 μM NOC-18, without NGF",did not affect motor neuron survival
Oc1nc(O)c2nc(O)[nH]c2n1 [urate],Prevention of the effects of NGF on motor neurons,"[1]; co-culture, 200 μM, 72 h",prevented
O=NOO [peroxynitrite],Increase of NGF secretion to the culture medium,"[3]; 24 hours after treatment, LPS 1 μg/ml",~9 fold
same,NGF concentration in conditioned culture media versus controls,[3]; after 3 days,5 fold
"CC(=N)NCCCC[C@H](N)C(=O)O [LNIL, L-N6-(1-Iminoethyl)-lysine]",Prevention of motor neuron apoptosis induced by NGF,"[1]; co-culture, 10 μM, 72 h",significantly prevented
N=C(N)NN [aminoguanidine],Prevention of motor neuron apoptosis induced by NGF,"[1]; co-culture, 50 μM, 72 h",significantly prevented
same,"Motor neuron survival, percentage of control","[1]; inhibitor 50 μM, 72 h",87.0±8.0%
"CCCNC(=N)NCCC[C@H](N)C(=O)O [NPLA, N5[Imino(propylamino)methyl]-Lornithine; Nu-Propyl-L-arginine]",Prevention of motor neuron apoptosis induced by NGF,"[1]; co-culture, 10 μM, 72 h",significantly prevented
same,"Motor neuron survival, percentage of control","[1]; inhibitor 10 μM, 72 h",110.4±9.2%
COC(=O)CC[C@H](NC(=O)[C@H](CC(=O)OC)NC(=O)OCc1ccccc1)C(=O)N[C@H](C(=O)N[C@@H](CC(=O)OC)C(=O)CF)C(C)C [DEVD-fmk],Prevention of NGF-induced motor neuron death by caspase inhibitors,"[1]; co-culture, 10 μM added every 24 hours",prevented
B1,Motor neuron survival with peroxynitrite-treated neurotrophin,[2],Decreased motor neuron survival
B2,Tolerability of NGF autoimmunization,[4]; all NGF autoimmunized mice,gained weight and did not display any signs of discomfort
same,Delay of survival versus mice injected with adjuvant only,"[4]; female G93A mice, NGF in aluminum phosphate s.c., in average",10 to 15 days
same,Disease onset,[4]; in most of the NGF autoimmunized mice,delayed
same,"Motor neurons with fewer neurites, immunoreactive for nitrotyrosine and cleaved caspase-3","[1]; NGF 100 ng/ml, after 24 h in culture",Approximately 50%
same,Survival of motor neurons cultured on unstimulated astrocytes,"[1]; NGF 0.1-100 ng/ml, 72 h",reduced in a dose-dependent manner
same,Motor neuron survival after pre-incubation of the astrocyte monolayer,[1]; NGF removed before neuron plating,no effect
same,Subset of motor neurons vulnerable to NGF in culture,[1]; co-cultures,~40%
same,Motor neuron apoptosis in the presence of nitric oxide,"[2]; NGF 100 ng/ml, nitric oxide <50 nM from 10 μM NOC-18",induce motor neuron apoptosis
same,Survival of motor neurons maintained with GDNF,"[2]; NGF 100 ng/ml, no nitric oxide donor",no effect
B3,Motor neuron survival with peroxynitrite-treated neurotrophin,[2],induces motor neuron apoptosis
